Source: the NIST ThermoML archive (doi:10.1016/j.jct.2018.06.007)

Legend:
[1] = 101 kPa, Liquid; for speed of sound: Frequency=2 MHz, Linear variable-path acoustic interferometer; for mass density: Pycnometric method
[2] = xn = mol fraction of the nth substance listed; conditions: 101 kPa, Liquid; for speed of sound: Frequency=2 MHz, Linear variable-path acoustic interferometer; for mass density: Pycnometric method

CCN(CC)CCO [(diethylamino)ethanol]
[1]
Conditions	mass density [kg/m3]	speed of sound [m/s]
293.15 K	884.37	1366.5
303.15 K	874.93	1327.3
313.15 K	865.62	1285

CCCO [propan-1-ol] + CCN(CC)CCO
[2], x2 = 0
Conditions	mass density [kg/m3]	speed of sound [m/s]
293.15 K	803.76	1227
303.15 K	795.82	1192.5
313.15 K	787.88	1157.7

CCCCO [butan-1-ol] + CCN(CC)CCO
[2], x2 = 0
Conditions	mass density [kg/m3]	speed of sound [m/s]
293.15 K	809.53	1261.9
303.15 K	802	1224.7
313.15 K	794.7	1188.8

CCCO [propan-1-ol]
[1]
Conditions	mass density [kg/m3]	speed of sound [m/s]
293.15 K	803.76	1227
303.15 K	795.82	1192.5
313.15 K	787.88	1157.7

CCN(CC)CCO [(diethylamino)ethanol] + CCCO
[2]
Conditions	mass density, 293.15 K [kg/m3]	mass density, 303.15 K [kg/m3]	mass density, 313.15 K [kg/m3]	speed of sound, 293.15 K [m/s]	speed of sound, 303.15 K [m/s]	speed of sound, 313.15 K [m/s]
x1 = 0.0937	817.5	809.54	801.82	1247.7	1213.2	1178.9
x1 = 0.1994	830.99	822.96	815.1	1269	1234.4	1199.7
x1 = 0.3005	842.11	833.85	825.77	1287.6	1252.7	1217.3
x1 = 0.4048	851.86	843.48	835.1	1305	1269.5	1233.2
x1 = 0.5072	859.98	851.48	842.85	1320.1	1284.1	1247
x1 = 0.61	866.74	858.08	849.33	1333.3	1296.9	1259.2
x1 = 0.7093	872.27	863.47	854.7	1344	1307.3	1269.4
x1 = 0.801	876.7	867.78	858.95	1352.2	1315.3	1277
x1 = 0.9047	881.06	871.91	862.91	1360.1	1322.3	1282.5
x1 = 1	884.37	874.93	865.62	1366.5	1327.3	1285

CCN(CC)CCO [(diethylamino)ethanol] + CCCCO
[2]
Conditions	mass density, 293.15 K [kg/m3]	mass density, 303.15 K [kg/m3]	mass density, 313.15 K [kg/m3]	speed of sound, 293.15 K [m/s]	speed of sound, 303.15 K [m/s]	speed of sound, 313.15 K [m/s]
x1 = 0.0902	820.03	812.47	805.16	1276.3	1239.8	1204.1
x1 = 0.1941	831.16	823.43	815.92	1291.2	1254.8	1218.7
x1 = 0.2938	840.82	832.89	825.11	1304.3	1267.7	1231
x1 = 0.4045	850.42	842.23	834.18	1317.8	1281	1243.5
x1 = 0.5081	858.32	849.91	841.63	1329.2	1292.2	1254
x1 = 0.6088	865.03	856.45	847.98	1339.3	1302.1	1263.3
x1 = 0.7129	871.14	862.42	853.78	1348.6	1311.2	1271.9
x1 = 0.8131	876.29	867.39	858.66	1356.4	1318.7	1278.8
x1 = 0.9037	880.46	871.28	862.4	1362.2	1324	1283.2
x1 = 1	884.37	874.93	865.62	1366.5	1327.3	1285

CCCCO [butan-1-ol]
[1]
Conditions	mass density [kg/m3]	speed of sound [m/s]
293.15 K	809.53	1261.9
303.15 K	802	1224.7
313.15 K	794.7	1188.8
